Biological target: PAR4 (Homo sapiens (Human), UniProt Q96RI0)
Test: FLIPR assay in PAR4-expressing HEK293 cells (PAR4 antagonist activity, calcium mobilization)
Type: cell-based
Settings: FLIPR assay as described in Example A
Description: The FLIPR assay is an exemplary in vitro assay for measuring the activity of the PAR4 antagonists of the present invention. In this assay, intracellular calcium mobilization is induced in PAR4 expressing cells by a PAR4 agonist and calcium mobilization is monitored. See, e.g., Example A.
HEK293 cells stably expressing PAR4 were generated by a standard method of transfection of human […] cDNA expression vector or by RAGE technology from Athersys Inc. (Cleveland, Ohio) and selected based on PAR4 protein expression of mRNA expression. […] These cells express endogenous PAR1 and can elicit calcium signal upon stimulation with PAR1 agonist peptide.
Counter screens for agonist activity and PAR1 antagonist activity were also performed. Briefly, HEK293 EBNA PAR4 clone 20664.1J cells were plated 24 hrs. prior to experiment in 384 well, Poly-D-Lysine coated, black, clear bottom plates (Greiner Bio-One, Monroe, N.C.). Cells were plated at 20,000 cells/well in 20 μl growth medium and incubated at 37° C. with 5% CO2 overnight. At time of assay, media was replaced with 40 μl 1× Hank's Buffered Saline Solution (HBSS) (with 10 mM HEPES) and 20 μl test compound also diluted in 1×HBSS buffer was added at various concentrations and 0.67% DMSO final concentration on the FDSS for agonist measurement. The cells were then incubated for 30 minutes at room temperature followed by addition of 20 μl of agonist peptide for antagonist measurement on the FDSS.
As indicated above, the FLIPR assay, an in vitro assay, measures the PAR4 antagonist activity of compounds tested as described in Example A.

Chain of PAR4 (Q96RI0 18-385): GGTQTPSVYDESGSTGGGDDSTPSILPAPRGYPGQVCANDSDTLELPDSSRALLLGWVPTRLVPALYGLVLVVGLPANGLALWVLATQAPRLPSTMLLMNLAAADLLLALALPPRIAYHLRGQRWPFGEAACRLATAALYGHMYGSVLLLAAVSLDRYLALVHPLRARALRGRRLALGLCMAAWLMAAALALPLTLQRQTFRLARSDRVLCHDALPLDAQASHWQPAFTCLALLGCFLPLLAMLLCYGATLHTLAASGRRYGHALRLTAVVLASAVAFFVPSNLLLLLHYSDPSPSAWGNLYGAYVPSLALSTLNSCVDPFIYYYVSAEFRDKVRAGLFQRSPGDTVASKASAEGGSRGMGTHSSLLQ

IC50 [nM]	Structure (SMILES)
419	CSc1nn2cc(-c3nc4c(OC(F)(F)F)cccc4s3)nc2s1 [Example 181, 2-(2-(Methylthio)imidazo[2,1-b][1,3,4]thiadiazol-6-yl)-4-(trifluoromethoxy)benzo[d]thiazole]
13.9	COc1ccc2c(C)c(-c3cn4nc(SC)sc4n3)oc2c1 [Example 106]
457	FC(F)C(F)(F)c1nn2cc(-c3cc4ccccc4o3)nc2s1 [Example 208, 6-(Benzofuran-2-yl)-2-(1,1,2,2-tetrafluoroethyl)imidazo[2,1-b][1,3,4]thiadiazole]
2360	CSc1nn2cc(-c3nc4c(OC[C@@H]5CCCN5C(=O)[C@H](NC(=O)OC(C)(C)C)c5ccccc5)cccc4o3)nc2s1 [Example 334, tert-Butyl ((R)-2-((S)-2-(((2-(2-(methylthio)imidazo[2,1-b][1,3,4]thiadiazol-6-yl)benzo[d]oxazol-4-yl)oxy)methyl)pyrrolidin-1-yl)-2-oxo-1-phenylethyl)carbamate]
9.64	COc1nn2cc(-c3nc4cc(F)ccc4s3)nc2s1 [Example 194]
681	CCc1nn2cc(-c3nc4ccc(OCC5CC5)cc4o3)nc2s1 [Example 74]
1.48	COc1cc(OCc2cccc(OCc3ccc(Cl)cc3F)c2)c2cc(-c3cn4nc(OC)sc4n3)oc2c1 [Example 323]
204	CSc1nn2cc(-c3nc4ccc(C)cc4s3)nc2s1 [Example 190]
48.4	COCCOc1cccc2oc(-c3cn4nc(OC)sc4n3)cc12 [Example 256]
7.92	COc1nn2cc(-c3cc4ccc(F)cc4o3)nc2s1 [Example 96]
407	CNc1nn2cc(-c3cc4ccccc4o3)nc2s1 [Example 69]
566	CSc1nn2cc(-c3nc4c(OC[C@H]5CCCN5C(=O)[C@H](NC(=O)OC(C)(C)C)c5ccccc5)cccc4o3)nc2s1 [Example 333, tert-Butyl ((R)-2-((R)-2-(((2-(2-(methylthio)imidazo[2,1-b][1,3,4]thiadiazol-6-yl)benzo[d]oxazol-4-yl)oxy)methyl)pyrrolidin-1-yl)-2-oxo-1-phenylethyl)carbamate]
23.1	COc1cc2oc(-c3cn4nc(Br)sc4n3)cc2cc1Br [Example 275]
5.88	COc1nn2cc(-c3cc4c(C)cc(C)cc4o3)nc2s1 [Example 297]
3.1	COc1nn2cc(-c3cc4c(Cl)cccc4o3)nc2s1 [Example 109]
0.32	COc1cc(OCc2cccc(OCc3cccc(Cl)c3)c2)c2cc(-c3cn4nc(OC)sc4n3)oc2c1 [Example 349]
27.8	COc1ccc2oc(-c3cn4nc(OC)sc4n3)nc2c1 [Example 142]
4.05	COc1cc(OCc2ccccc2)c2cc(-c3cn4nc(SC)sc4n3)oc2c1 [Example 227-228]
13	COc1cc(OCc2ccccc2)c2nc(-c3cn4nc(OC)sc4n3)oc2c1 [Example 121, 4-(Benzyloxy)-6-methoxy-2-(2-methoxyimidazo[2,1-b][1,3,4]thiadiazol-6-yl)benzo[d]oxazole]
814	COc1ccc(COc2cccc3oc(-c4cn5nc(SC)sc5n4)nc23)cc1 [Example 172]
13.6	COc1cccc2oc(-c3cn4nc(SC)sc4n3)nc12 [Example 149]
8.82	COc1cc(OCc2cccc(OCc3cc(F)cc(F)c3)c2)c2cc(-c3cn4nc(OC)sc4n3)oc2c1 [Example 311]
400	CSc1nn2cc(-c3cc4cccc(OC(F)(F)F)c4o3)nc2s1 [Example 70]
512	Cc1cc2oc(-c3cn4nc(Br)sc4n3)cc2cc1Cl [Example 277]

IC50 [nM]	Structure (SMILES)
286	CSc1nn2cc(-c3nc4ccc(OCc5cccnc5)cc4o3)nc2s1 [Example 145]
10.3	C[C@H](F)c1nn2cc(-c3cc4c(Cl)cc(Cl)cc4o3)nc2s1 [Example 213B, (S)-6-(4,6-Dichlorobenzofuran-2-yl)-2-(1-fluoroethyl)imidazo[2,1-b][1,3,4]thiadiazole]
1160	CSc1nn2cc(-c3nc4c(OC[C@@H]5CCCN5C(=O)[C@H](NC(=O)c5cccs5)c5ccccc5)cccc4o3)nc2s1 [Example 338, N—((R)-2-((S)-2-(((2-(2-(Methylthio)imidazo[2,1-b][1,3,4]thiadiazol-6-yl)benzo[d]oxazol-4-yl)oxy)methyl)pyrrolidin-1-yl)-2-oxo-1-phenylethyl)thiophene-2-carboxamide]
300	COc1cc(OC)c2cc(-c3cn4nc(C(C)(F)F)sc4n3)oc2c1Br [Example 225, 6-(7-Bromo-4,6-dimethoxybenzofuran-2-yl)-2-(1,1-difluoroethyl)imidazo[2,1-b][1,3,4]thiadiazole]
15.7	Cc1ccc2cc(-c3cn4nc(C(C)(F)F)sc4n3)oc2c1 [Example 233]
171	COCOc1ccc2nc(-c3cn4nc(SC)sc4n3)oc2c1 [Example 162]
0.87	COc1cc(OC[C@@H]2COC(C)(C)O2)c2cc(-c3cn4nc(OC)sc4n3)oc2c1 [Example 339, (R)-6-(4-((2,2-Dimethyl-1,3-dioxolan-4-yl)methoxy)-6-methoxybenzofuran-2-yl)-2-methoxyimidazo[2,1-b][1,3,4]thiadiazole]
1.22	COc1ccc2cc(-c3cn4nc(OC)sc4n3)oc2c1 [Example 71]
11.4	COc1ccc(OC)c2oc(-c3cn4nc(SC)sc4n3)cc12 [Example 105]
2.21	COc1cc(OC[C@H]2CCCN2C(=O)OC(C)(C)C)c2cc(-c3cn4nc(OC)sc4n3)oc2c1 [Example 340]
364	Fc1ccc2cc(-c3cn4nc(C(F)(F)Cl)sc4n3)oc2c1 [Example 243]
39.5	COCOc1cccc2oc(-c3cn4nc(SC)sc4n3)nc12 [Example 163]
4.83	COc1ccc2cc(-c3cn4nc(C(C)F)sc4n3)oc2c1 (stereo not drawn) [Example 293]
78.3	CSc1nn2cc(-c3nc4c(O)cccc4o3)nc2s1 [Example 147]
301	CSc1nn2cc(-c3nc4c(OCc5ccc(C(F)(F)F)cc5)cccc4o3)nc2s1 [Example 155]
7.24	COc1cc2oc(-c3cn4nc(C(C)(F)F)sc4n3)cc2cc1Cl [Example 239]
2340	CC(F)(F)c1nn2cc(-c3nc4ccccc4o3)nc2s1 [Example 178]
0.73	COc1cc(OCc2cccc(OCc3ccc(OC)c(OC)c3)c2)c2cc(-c3cn4nc(OC)sc4n3)oc2c1 [Example 389]
464	Clc1nccc2oc(-c3cn4nc(Br)sc4n3)cc12 [Example 222, 2-(2-Bromoimidazo[2,1-b][1,3,4]thiadiazol-6-yl)-4-chlorofuro[3,2-c]pyridine]
2.81	COc1ccc2c(C)c(-c3cn4nc(SC)sc4n3)oc2c1OC [Example 25]
12.4	CSc1nn2cc(-c3cc4c(OCc5cccc(OCc6ccccc6)c5)cc(OC=O)cc4o3)nc2s1 [Example 425]
167	CSc1nn2cc(-c3nc4ccc(OCC5CC5)cc4o3)nc2s1 [Example 174]
4.69	COc1cc(OCc2cccc(OCc3c(Cl)cccc3Cl)c2)c2cc(-c3cn4nc(OC)sc4n3)oc2c1 [Example 368]

Structure (SMILES)	IC50 [nM]
COCOc1cccc2oc(-c3cn4nc(OC)sc4n3)cc12 [Example 217, 2-Methoxy-6-(4-(methoxymethoxy)benzofuran-2-yl)imidazo[2,1-b][1,3,4]thiadiazole]	7.51

Reference: US9862730B2, “Imidazothiadiazole derivatives as protease activated receptor 4 (PAR4) inhibitors for treating platelet aggregation” (BRISTOL-MYERS SQUIBB COMPANY, priority 2012, dated 2018)
